Columns and labels:
5-HT1A receptors = target: T1, 5-HT1A receptors (Homo sapiens, UniProt P08908); experiment: h5-HT1A binding affinity test ([3H]8-OH-DPAT, HEK-293 cell homogenates); conditions: 0.3 nM [3H]8-OH-DPAT, 22°C, 60 min, Ki from IC50 by ChengPrusoff equation
T1 construct: host or cells: human HEK-293 cell homogenates
T1 sequence (P08908 1-422): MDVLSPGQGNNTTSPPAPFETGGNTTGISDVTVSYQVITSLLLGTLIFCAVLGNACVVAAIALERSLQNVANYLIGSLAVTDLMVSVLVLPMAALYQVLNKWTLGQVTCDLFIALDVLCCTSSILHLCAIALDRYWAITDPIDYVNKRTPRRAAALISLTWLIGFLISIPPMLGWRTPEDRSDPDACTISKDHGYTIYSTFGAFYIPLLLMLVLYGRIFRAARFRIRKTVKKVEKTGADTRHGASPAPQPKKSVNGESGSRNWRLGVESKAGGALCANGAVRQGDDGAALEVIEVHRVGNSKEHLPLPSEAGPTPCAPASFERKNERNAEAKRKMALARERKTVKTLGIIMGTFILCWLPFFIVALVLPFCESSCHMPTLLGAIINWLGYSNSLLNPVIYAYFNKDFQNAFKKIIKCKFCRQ
Method: Human HEK-293 cell homogenates (36 μg of protein) were incubated at 22° C. for 60 minutes with 0.3 nM of [^3H]8-OH-DPAT (Perkin-Elmer) in the absence or presence of the test compound in a buffer solution containing 50 mM of Tris-HCl (pH 7.4), 10 mM of MgSO4, 0.5 mM of EDTA and 2 μg/mL aprotinine.
The non-specific binding value was determined by incubating the same mixture in the presence of 10 μM of 8-OH-DPAT, which was used as the standard reference compound. Competitive curve was obtained by testing data of 8-OH-DPAT in each experiment at several concentrations.
The incubated samples were filtered fastly using a 96-sample cell harvester (Unifilter, Packard) through fiberglass filter membranes (GF/B, Packard) pre-soaked with 0.3% PEI in vacuo, and washed several times with an ice cold 50 mM of Tris-HCl. The filter membranes were dried and the retained radioactivity was measured in a scintillation counter (Topcount, Packard) using a scintillation cocktail (Microscint 0, Packard). The experimental results were expressed as inhibition percentage of radioactive ligand specific binding relative to control groups.
The experiments of combining [^3H]8-OH-DPAT (0.3 nM) with 5-HT1A receptors of human HEK-293 cells were accomplished by using Scintillation Proximity Assay on membrane. The test compounds were required to be tested at least three times in the case of a concentration of more than 6 log, and the data were analyzed by the method of nonlinear regression using Hill equation curve to obtain an IC50 value, and then the IC50 value was calculated by ChengPrusoff equation to obtain a Ki value.

[1] = target: T2, human 5-HT transporters (SERT) (Homo sapiens, UniProt P31645); experiment: Affinity to CHO cells-transfected human-derived 5-HT transporter ([3H]imipramine binding); conditions: 2 nM [3H]imipramine, CHO cell membrane homogenate, 22°C, 60 min
T2 construct: expressed in transfected cells; host or cells: CHO cells (membrane homogenate)
T2 sequence (P31645 whole entry): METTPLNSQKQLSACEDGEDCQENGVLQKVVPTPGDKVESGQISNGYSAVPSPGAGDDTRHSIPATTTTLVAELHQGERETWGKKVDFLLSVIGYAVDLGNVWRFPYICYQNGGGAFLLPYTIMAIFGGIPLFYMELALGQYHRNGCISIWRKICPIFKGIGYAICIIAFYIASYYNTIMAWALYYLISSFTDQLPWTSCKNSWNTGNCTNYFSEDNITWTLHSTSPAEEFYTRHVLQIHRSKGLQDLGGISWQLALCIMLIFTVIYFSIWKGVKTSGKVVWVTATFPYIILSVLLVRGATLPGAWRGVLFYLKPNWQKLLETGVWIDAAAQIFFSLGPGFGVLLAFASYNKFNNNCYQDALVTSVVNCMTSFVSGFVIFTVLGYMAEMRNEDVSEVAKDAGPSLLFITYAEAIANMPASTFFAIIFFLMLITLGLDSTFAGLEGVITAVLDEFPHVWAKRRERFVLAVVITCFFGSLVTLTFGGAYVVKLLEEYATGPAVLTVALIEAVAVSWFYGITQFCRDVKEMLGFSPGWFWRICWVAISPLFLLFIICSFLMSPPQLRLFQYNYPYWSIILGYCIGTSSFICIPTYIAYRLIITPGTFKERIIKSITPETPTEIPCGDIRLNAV
Method: To a mixed system of cell membrane homogenate protein (12 μg), 2 nM of [^3H] imipramine and buffer solution (50 mM of Tris-HCl (pH 7.4), 120 mM of NaCl, 0.5 mM of KCl and 0.1% BSA) was added or not added the test compound at 22° C., and then the resulting mixture was incubated for 60 minutes.
To the mixed system mentioned above was added 10 μM of imipramine for measuring nonspecific binding values.
After incubation, the samples were filtered rapidly in vacuo with a 96-sample cell harvester (Unifilter, Packard) through glass-fiber filters (GF/B, Packard) pre-soaked with 0.3% PEI and rinsed several times with an ice-cold 50 mM of Tris-HCl and 150 mM of NaCl. The filters were dried and the retained radioactivity was measured by means of a scintillation counter (Topcount, Packard) using a scintillation cocktail (Microscint O, Packard). Each experimental result was expressed as a percentage inhibition of radioactive ligand specific binding relative to control groups.
The standard reference compound was imipramine, and ICso values were calculated by the competitive curve obtained from a series of concentrations of the experimental test. The experimental results of the affinity of the compounds disclosed herein to human 5-HT transporters (SERT) were listed in Table A.

[2] = Pharmacokinetic evaluation in rats after intravenous or gavage administration; assay type: in vivo, SD rats; conditions: for AUC(0-inf) / AUC(0-t) / Cmax / Tmax / clearance / half-life / Vd: SD, rat, plasma; for Vd: read-out: Vss
Method: The pharmacokinetic evaluation of the compound disclosed herein in rats, dogs and monkeys was carried out in this invention, and animal information as described in Table 1.
The compounds disclosed herein were administered in form of a saline solution containing 5% DMSO, 5% Kolliphor HS 15, 2% (2% HCl) and 88% Saline, or a physiological saline solution containing 10% DMSO, 10% Kolliphor HS 15 and 80% physiological saline to an animal subject. The animals of the intravenous administration group were administered at a dose of 1 mg/kg, and 0.3 mL of vein blood samples were collected at the time points of 0, 0.083, 0.25, 0.5, 1.0, 2.0, 5.0, 7.0 and 24 h after drug administration, then each blood sample was processed to separate plasma by centrifugation at 3000 rpm or 4000 rpm for 10 minutes, and the plasma samples were collected and stored at −20° C. or −70° C. The animals of the gavage administration group were administered at a dose of 2.5 mg/kg, and 0.3 mL of vein blood samples were collected at the time points of 0, 0.083, 0.25, 0.5, 1.0, 2.0, 5.0, 7.0 and 24 h after drug administration, then each blood sample was processed to separate plasma by centrifugation at 3000 rpm or 4000 rpm for 10 minutes, and the plasma samples were collected and stored at −20° C. or −70° C.
The above plasma was analyzed by the LC/MS/MS system.
The LC/MS/MS system for the analysis comprises an Agilent 1200 Series Vacuum Degasser, binary syringe pumps, a well-plate autosampler, a column oven and an Agilent G6430A Triple Quadrupole Mass Spectrometer equiped with an electrospray ionization (ESI) source.
Analysis was performed on waters XBridge C18 (2.1×50 mm, […] column, and 5 μL of sample was injected). Conditions of the analysis comprise: a mobile phase consisting of mobile phase A (water, 2 mM ammonium formate and 0.1% formic acid) and mobile phase B (methanol, 2 mM ammonium formate and 0.1% formic acid). A flow rate of 0.4 mL/min.

Row | SMILES | AUC(0-inf) ([2]; iv, 1 mg/kg) | AUC(0-t) ([2]; iv, 1 mg/kg) | Cmax ([2]; iv, 1 mg/kg) | Tmax ([2]; iv, 1 mg/kg) | clearance ([2]; iv, 1 mg/kg) | half-life ([2]; iv, 1 mg/kg) | Vd ([2]; iv, 1 mg/kg) | AUC(0-t) ([2]; po, 2.5 mg/kg) | Cmax ([2]; po, 2.5 mg/kg) | Tmax ([2]; po, 2.5 mg/kg) | F ([2]; po, 2.5 mg/kg) | AUC(0-inf) ([2]; po, 2.5 mg/kg) | half-life ([2]; po, 2.5 mg/kg) | Ki (5-HT1A receptors) | IC50 [1]
1 | COc1cc(F)ccc1-c1cnc(N2CCN(CCCc3c[nH]c4ccc(C#N)cc34)CC2)nc1 [Example 16, 3-(3-(4-(5-(4-fluoro-2-methoxyphenyl)pyrimidin-2-yl)piperazin-1-yl)propyl)-1H-indole-5-carbonitrile] | – | – | – | – | – | – | – | – | – | – | – | – | – | 7.1 nM | 0.87 nM
2 | N#Cc1ccc2[nH]cc(CCCN3CCN(c4ncc(-c5ccc(C(N)=O)cc5)cn4)CC3)c2c1 [Example 6, 4-(2-(4-(3-(5-cyano-1H-indol-3-yl)propyl)piperazin-1-yl)pyrimidin-5-yl) benzamide] | – | – | – | – | – | – | – | – | – | – | – | – | – | 4.13 nM | 0.93 nM
3 | COc1ccccc1-c1cnc(N2CCN(CCCCc3c[nH]c4ccc(C#N)cc34)CC2)nc1 [Example 9, 3-(4-(4-(5-(2-methoxyphenyl)pyrimidin-2-yl)piperazin-1-yl)butyl)-1H-indole-5-carbonitrile] | – | – | – | – | – | – | – | – | – | – | – | – | – | 2.7 nM | 1 nM
4 | COc1ccccc1-c1cnc(N2CCN(CCCc3c[nH]c4ccc(C#N)cc34)CC2)nc1 [Example 10] | – | – | – | – | – | – | – | – | – | – | – | – | – | 3.4 nM | 0.84 nM
5 | N#Cc1ccc2[nH]cc(CCCCN3CCN(c4ncc(-c5ccc(Cl)cc5)cn4)CC3)c2c1 [Example 11, 3-(4-(4-(5-(4-chlorophenyl)pyrimidin-2-yl)piperazin-1-yl)butyl)-1H-indole-5-carbonitrile] | – | – | – | – | – | – | – | – | – | – | – | – | – | 13 nM | 1.6 nM
6 | N#Cc1ccc2[nH]cc(CCCCN3CCN(c4ncc(-c5ccc(C(N)=O)cc5)cn4)CC3)c2c1 [Example 5, 4-(2-(4-(4-(5-cyano-1H-indol-3-yl)butyl)piperazin-1-yl)pyrimidin-5-yl)benzamide] | – | – | – | – | – | – | – | – | – | – | – | – | – | 8.42 nM | 0.79 nM
7 | COc1cc(F)ccc1-c1cnc(N2CCN(CCCCc3c[nH]c4ccc(C#N)cc34)CC2)nc1 [Example 15, 3-(4-(4-(5-(4-fluoro-2-methoxyphenyl)pyrimidin-2-yl)piperazin-1-yl)butyl)-1H-indole-5-carbonitrile] | – | – | – | – | – | – | – | – | – | – | – | – | – | 11 nM | 0.96 nM
8 | N#Cc1ccc2[nH]cc(CCCCN3CCN(c4ncc(-c5ccc(F)cc5F)cn4)CC3)c2c1 [Example 13, 3-(4-(4-(5-(2,4-difluorophenyl)pyrimidin-2-yl)piperazin-1-yl)butyl)-1H-indole-5-carbonitrile] | 724 ng·h/mL | 643 ng·h/mL | 330 ng/mL | 0.083 h | 23.8 mL/min/kg | 3.9 h | 6 L/kg | 1070 ng·h/mL | 152 ng/mL | 1 h | 66.4% | 1160 ng·h/mL | 4.14 h | 1.3 nM | 1.2 nM
9 | N#Cc1ccc2[nH]cc(CCCCN3CCN(c4ncc(-c5ccc(F)cc5)cn4)CC3)c2c1 [Example 7, 3-(4-(4-(5-(4-fluorophenyl)pyrimidin-2-yl)piperazin-1-yl)butyl)-1H-indole-5-carbonitrile] | 1030 ng·h/mL | 1010 ng·h/mL | 299 ng/mL | 0.139 h | 16.7 mL/min/kg | 4.64 h | 5.03 L/kg | 1960 ng·h/mL | 194 ng/mL | 2.67 h | 78.1% | 2010 ng·h/mL | 4.37 h | 3.7 nM | 0.88 nM
10 | N#Cc1ccc2[nH]cc(CCCCN3CCN(c4ncc(-c5cccc(C(N)=O)c5)cn4)CC3)c2c1 [Example 1, 3-(2-(4-(4-(5-cyano-1H-indol-3-yl)butyl)piperazin-1-yl)pyrimidin-5-yl)benzamide] | – | – | – | – | – | – | – | – | – | – | – | – | – | 2.87 nM | 0.86 nM

Second part, led by results:

Row | AUC(0-inf) ([2]; iv, 1 mg/kg) | AUC(0-t) ([2]; iv, 1 mg/kg) | Cmax ([2]; iv, 1 mg/kg) | Tmax ([2]; iv, 1 mg/kg) | clearance ([2]; iv, 1 mg/kg) | half-life ([2]; iv, 1 mg/kg) | Vd ([2]; iv, 1 mg/kg) | AUC(0-t) ([2]; po, 2.5 mg/kg) | Cmax ([2]; po, 2.5 mg/kg) | Tmax ([2]; po, 2.5 mg/kg) | F ([2]; po, 2.5 mg/kg) | AUC(0-inf) ([2]; po, 2.5 mg/kg) | half-life ([2]; po, 2.5 mg/kg) | SMILES | Ki (5-HT1A receptors) | IC50 [1]
11 | 2240 ng·h/mL | 1870 ng·h/mL | 444 ng/mL | 0.083 h | 7.5 mL/min/kg | 9.52 h | 5.46 L/kg | 2950 ng·h/mL | 207 ng/mL | 5.67 h | 52.62% | – | – | N#Cc1ccc2[nH]cc(CCCN3CCN(c4ncc(-c5ccc(Cl)cc5)cn4)CC3)c2c1 [Example 12, 3-(3-(4-(5-(4-chlorophenyl)pyrimidin-2-yl)piperazin-1-yl)propyl)-1H-indole-5-carbonitrile] | 5.5 nM | 0.32 nM
12 | 753 ng·h/mL | 722 ng·h/mL | 409 ng/mL | 0.083 h | 22.9 mL/min/kg | 1.59 h | 2.33 L/kg | 706 ng·h/mL | 241 ng/mL | 0.833 h | 39.2% | 767 ng·h/mL | 1.95 h | N#Cc1ccc2[nH]cc(CCCN3CCN(c4ncc(-c5cccc(C(N)=O)c5)cn4)CC3)c2c1 [Example 2, 3-(2-(4-(3-(5-cyano-1H-indol-3-yl)propyl)piperazin-1-yl)pyrimidin-5-yl) benzamide] | 1.21 nM | 0.35 nM
13 | 1250 ng·h/mL | 1180 ng·h/mL | 195 ng/mL | 0.139 h | 13.4 mL/min/kg | 5.85 h | 6.01 L/kg | 2140 ng·h/mL | 180 ng/mL | 4 h | 68.48% | 2070 ng·h/mL | 4.85 h | N#Cc1ccc2[nH]cc(CCCN3CCN(c4ncc(-c5ccc(F)cc5)cn4)CC3)c2c1 [Example 8, 3-(3-(4-(5-(4-fluorophenyl)pyrimidin-2-yl)piperazin-1-yl)propyl)-1H-indole-5-carbonitrile] | 1.9 nM | 1.3 nM
14 | 1500 ng·h/mL | 1340 ng·h/mL | 193 ng/mL | 0.25 h | 11.6 mL/min/kg | 7.53 h | 6.41 L/kg | 2790 ng·h/mL | 180 ng/mL | 5 h | 83.28% | 3130 ng·h/mL | 7.28 h | N#Cc1ccc2[nH]cc(CCCN3CCN(c4ncc(-c5ccc(F)cc5F)cn4)CC3)c2c1 [Example 14, 3-(3-(4-(5-(2,4-difluorophenyl)pyrimidin-2-yl)piperazin-1-yl)propyl)-1H-indole-5-carbonitrile] | 0.92 nM | 0.58 nM
